Experimental data from the CheMixHub viscosity set.

Assay: xn = mol fraction of the nth substance listed

CC(Cl)(Cl)Cl + CCC(C)=O
298.15 K, 101.33 kPa
Conditions	viscosity [mPa·s]
x1 = 0.098	0.4094
x1 = 0.201	0.438
x1 = 0.299	0.4678
x1 = 0.398	0.5001
x1 = 0.499	0.5361
x1 = 0.6	0.5757
x1 = 0.7	0.6196
x1 = 0.8	0.669
x1 = 0.9	0.7256

CC(Cl)(Cl)Cl + CCC(C)O
298.15 K, 101 kPa
Conditions	viscosity [mPa·s]
x1 = 0.099	2.21
x1 = 0.2079	1.726
x1 = 0.2768	1.46
x1 = 0.3656	1.225
x1 = 0.5119	1.008
x1 = 0.5786	0.94
x1 = 0.6988	0.85
x1 = 0.78	0.808
x1 = 0.8911	0.781

O=CO + CCCC(C)=O
viscosity [mPa·s], 101 kPa
Conditions	x1 = 0.1002	x1 = 0.1998	x1 = 0.3016	x1 = 0.3992	x1 = 0.4881	x1 = 0.5974	x1 = 0.7186	x1 = 0.8392	x1 = 0.8701
298.15 K	0.5043	0.5479	0.6037	0.6689	0.7348	0.8418	1.003	1.198	1.262
308.15 K	0.4519	0.4876	0.5327	0.586	0.6424	0.7294	0.8532	1.011	1.058
318.15 K	0.4015	0.4344	0.4713	0.5146	0.5589	0.6331	0.7325	0.8607	0.8982

CC(Cl)(Cl)Cl + CCCCCC
303.15 K, 101 kPa
Conditions	viscosity [mPa·s]
x1 = 0.1033	0.3166
x1 = 0.2726	0.3777
x1 = 0.3375	0.4016
x1 = 0.4011	0.4253
x1 = 0.5547	0.4864
x1 = 0.5981	0.5047
x1 = 0.6578	0.5318
x1 = 0.7595	0.582
x1 = 0.8388	0.6246
x1 = 0.9378	0.6833

CC/C(C)=N/O + CCCCCC
viscosity [mPa·s], 101.3 kPa
Conditions	x1 = 0.0993	x1 = 0.1991	x1 = 0.2977	x1 = 0.3987	x1 = 0.4972	x1 = 0.5993	x1 = 0.6977	x1 = 0.7981	x1 = 0.899
293.15 K	0.345	0.393	0.461	0.556	0.69	0.899	1.213	1.729	2.695
298.15 K	0.33	0.376	0.437	0.526	0.646	0.835	1.111	1.559	2.357
303.15 K	0.315	0.357	0.414	0.495	0.605	0.776	1.019	1.411	2.09

CC(Cl)(Cl)Cl + CCCCCCC
303.15 K, 101 kPa
Conditions	viscosity [mPa·s]
x1 = 0.138	0.3932
x1 = 0.2468	0.4161
x1 = 0.355	0.442
x1 = 0.4494	0.4689
x1 = 0.5571	0.5061
x1 = 0.6233	0.5327
x1 = 0.7095	0.5716
x1 = 0.7857	0.6088
x1 = 0.8262	0.63
x1 = 0.9288	0.6849

CC(Cl)(Cl)Cl + CCCCCCCC
303.15 K, 101 kPa
Conditions	viscosity [mPa·s]
x1 = 0.1465	0.4786
x1 = 0.2573	0.4863
x1 = 0.3398	0.495
x1 = 0.4029	0.503
x1 = 0.4971	0.5195
x1 = 0.588	0.5408
x1 = 0.6617	0.5623
x1 = 0.7875	0.6103
x1 = 0.8238	0.6267
x1 = 0.9164	0.6735

CC(C)C1CCCCC1 + CCCCCCCCCCCCC
viscosity [mPa·s], 100 kPa
Conditions	x1 = 0.1077	x1 = 0.1971	x1 = 0.3025	x1 = 0.3985	x1 = 0.5016	x1 = 0.5996	x1 = 0.695	x1 = 0.799	x1 = 0.8956
293.15 K	1.773	1.7	1.619	1.549	1.473	1.4	1.328	1.253	1.18
298.15 K	1.615	1.551	1.48	1.419	1.351	1.287	1.224	1.158	1.094
303.15 K	1.476	1.421	1.358	1.304	1.245	1.188	1.134	1.075	1.017
308.15 K	1.356	1.308	1.253	1.205	1.153	1.103	1.055	1.003	0.95
313.15 K	1.251	1.209	1.16	1.118	1.072	1.028	0.984	0.938	0.889
318.15 K	1.16	1.123	1.078	1.041	1	0.961	0.922	0.88	0.836
323.15 K	1.078	1.045	1.005	0.972	0.935	0.9	0.865	0.827	0.787
